Residues, ends and D or L forms follow the SMILES beside them.
Experiments:
J774 macrophages = assay: in vitro macrophage uptake (endocytosis) of rho B-labeled peptides and lipopeptide complexes; assay type: cell-based, murine; settings: for mechanism of macrophage endocytosis (scavenger receptors): J774, 4 h or 22 h, G-HV21 and G-KV21 in the presence of HDL; for in vitro macrophage uptake, presence vs. absence of HDL: rho B-labeled peptides
Experimental: In Vitro Macrophage Uptake of GF9HDL and GA/E31HDL A quantitative in vitro macrophage assay of endo-cytosis of rho B-labeled HDL-mimicking lipopeptide complexes by J774 macrophage was performed as described. (18-20) Briefly, BALB/c murine macrophage J774A.1 cells (ATCC) were cultured at 37° C. with 5% CO2 in Dulbecco's modified Eagle's medium (Cellgro Mediatech, Manassas, Va.) with 2 mM glutamine, 100 U/mL penicillin, 0.1 mg/mL streptomycin, and 10% heat-inactivated fetal bovine serum (Cellgro Mediatech) and grown to approximately 90% confluency in 12-well tissue culture plates (Corning Costar, Corning, N.Y.).
Cells were washed twice using phosphate-buffered saline and lysed using Passive Lysis Buffer (Promega, Madison, Wis.). Rho B fluorescence was measured in the lysates with 544-nm excitation and 590-nm emission filters, using a Fluoroscan Ascent CF fluorescence microplate reader (Thermo Labsystems, Vantaa, Finland). Protein concentrations in the lysates were measured using Bradford reagent (Sigma-Aldrich) and an MRX microplate reader (Dynex Technologies, Chantilly, Va.) according to the manufacturer's recommended protocol.

J774A.1 macrophages = assay: In vitro macrophage endocytosis of fluorescent peptides with or without HDL; assay type: cell-based, mouse; settings: for receptors mediating in vitro macrophage endocytosis: pre-incubated with HDL, fucoidan, BLT-1, cytochalasin D; for in vitro macrophage endocytosis, effect of pre-incubation with HDL: rho B-labeled peptides, 1 mg/ml HDL
Experimental: The BALB/c murine macrophage cell line J774A.1 (ATCC TIB-67) were obtained from the American Type Culture Collection (ATCC, Manassas, Va.). The macrophage cells were cultured at 37° C. with 5% CO2 in Dulbecco's modified Eagle's medium (DMEM) (Cellgro, Mediatech Inc, Manassas, Va.) with 2 mM glutamine, 100 U/ml penicillin, 0.1 mg/ml streptomycin, and 10% fetal bovine serum (FBS) (Cellgro, Mediatech Inc, Manassas, Va.) and grown to approximately 90% of confluence in 6-well tissue culture plates (Corning, Tewksbury, Mass.). Cells were incubated for varied time periods from 4 to 24 h at 37° C. with fluorescently labeled peptides (pre-incubated with 1 mg/ml HDL) at a concentration of 4 μM rhodamine B (rho-B). After incubation, cells were washed twice with PBS and lysed using Promega passive lysis buffer (Promega, Madison, Wis.). The rho B fluorescence was measured in the lysates with a 540 nm excitation and a 590 nm emission filters using the Gemini EM fluorescence microplate reader (Molecular Devices, Sunnyvale, Calif.). The protein concentration in the lysates was determined using the Bradford reagent (Bio-Rad, Richmond, Calif.) and the SpectraMax 190 microplate reader (Molecular Devices, Sunnyvale, Calif.).
In one embodiment, after reaching target confluency, cells were incubated for 1 h in medium with or without fucoidan (400 μg/mL), BLT-1 (10 μM) or cytochalasin D (40 μM), Cells were subsequently incubated for 4 h and 22 h at 37° C. in medium containing 2 μM of rho B-labeled peptides G-KV21 and G-HV21 (as calculated for rho B) that were pre-incubated with 1 mg/ml HDL. After incubation, cells were washed twice with PBS and lysed using Promega passive lysis buffer. The rho B fluorescence and protein concentration were measured in the lysates as described above.

[1] = tested on: AsPC-1, BxPC-3 and Capan-1 xenograft tumors; assay: Human PC xenograft mouse models: tumor growth, survival, tolerability; assay type: in vivo; settings: free peptides i.p. once daily 5 days per week at indicated doses
Experimental: (§1) Mice were monitored daily and tumor measurements were taken along the length and width using Vernier calipers twice weekly until sacrifice. Tumor volumes were calculated using a modified ellipsoidal formula: (Length×Width^2)/2.
Results are expressed as the mean±SEM.
as §1
Mice were monitored daily and tumor measurements were taken along the length and width using Vernier calipers twice weekly until sacrifice.

[2] = tested on: human pancreatic cancer PANC-1 xenograft; assay: PANC-1 xenograft mouse model, standalone and with GEM+ABX chemotherapy; assay type: in vivo
Experimental: Mice were implanted subcutaneously into the right flank with PANC-1 cells in equal parts of serum-free growth medium and Matrigel. Mice were monitored daily and tumor measurements were taken along the length and width using Vernier calipers twice weekly until sacrifice. Tumor volumes were calculated using a modified ellipsoidal formula: (Length×Width^2)/2. […] Body weight were measured. Mean tumor volumes were calculated. […] Survival was evaluated using Kaplan-Meier survival curves.

[3] = tested on: human pancreatic cancer xenografts (cancer mice); settings: mouse, in vivo
Experimental: Treatment persisted for 31, 29 and 29 days for mice containing AsPC-1, BxPC-3 and Capan-1 tumor xenografts, respectively. Mean tumor volumes are calculated and plotted. All results are expressed as the mean±SEM (n=6 mice per group). On the final day of treatment, tumor volumes were compared between the drug-treated and control groups. **, p<0.01; ***, p<0.001; ****, p<0.0001 (versus vehicle).

healthy C57BL/6 mice = assay: Mouse tolerability studies; assay type: in vivo; settings: free form, i.p., healthy mice
Experimental: Naïve, female C57BL/6 mice at 8 to 10 weeks of age (18 to 21 g) from the Jackson Laboratory were used. […] Clinical observations and body weights were made twice daily.
Naïve, female C57BL/6 mice at 8 to 10 weeks of age (18 to 21 g) from the Jackson Laboratory were used. Animals were randomly grouped (5 mice per group) and i.p. injected with 400 mg/kg G-HV21, G-KV21 or G-TE21. Clinical observations and body weights were made twice daily.

SMILES | mechanism of macrophage endocytosis (scavenger receptors) (J774 macrophages) | in vitro macrophage uptake, presence vs. absence of HDL (J774 macrophages) | receptors mediating in vitro macrophage endocytosis (J774A.1 macrophages) | in vitro macrophage endocytosis, effect of pre-incubation with HDL (J774A.1 macrophages) | tumor growth [1] | survival, combined with GEM+ABX chemotherapy [2] | tumor growth, combined with GEM+ABX chemotherapy ([2]; GEM+ABX days 1, 4, 8, 11, 15) | tolerability in cancer mice [3] | dose at which non-toxic and well tolerated (healthy C57BL/6 mice)
CC(C)C[C@H](NC(=O)[C@H](Cc1ccccc1)NC(=O)CN)C(=O)N[C@@H](CO)C(=O)N[C@@H](CCCCN)C(=O)N[C@@H](CO)C(=O)N[C@@H](CC(C)C)C(=O)N[C@H](C(=O)N[C@@H](Cc1ccccc1)C(=O)NCC(=O)N[C@@H](CCC(=O)O)C(=O)N[C@@H](CCC(=O)O)C(=O)N[C@@H](CC[S+](C)[O-])C(=O)N[C@@H](CCCNC(=N)N)C(=O)N[C@@H](CC(=O)O)C(=O)N[C@@H](CCCNC(=N)N)C(=O)N[C@@H](C)C(=O)N[C@@H](CCCNC(=N)N)C(=O)N[C@@H](C)C(=O)N[C@@H](Cc1c[nH]cn1)C(=O)N[C@H](C(=O)O)C(C)C)C(C)C (some centres unmarked) [G-HV21] (HELM PEPTIDE1{G.F.L.S.K.S.L.V.F.G.E.E.[CS(=O)CC[C@H](N[*:1])C(=O)[*:2]].R.D.R.A.R.A.H.V}$$$$V2.0) | SR-mediated in a time-dependent manner and is largely driven by SR-A | significantly increases | mediated with scavenger receptors (SR) A (SR-A) and BI (SR-B1) with SR-A being the predominant mediator | enhances in vitro macrophage endocytosis | inhibit tumor growth in three human PC xenograft mouse models |  |  |  | 
CC(C)C[C@H](NC(=O)[C@H](Cc1ccccc1)NC(=O)CN)C(=O)N[C@@H](CO)C(=O)N[C@@H](CCCCN)C(=O)N[C@@H](CO)C(=O)N[C@@H](CC(C)C)C(=O)N[C@H](C(=O)N[C@@H](Cc1ccccc1)C(=O)N[C@@H](Cc1c[nH]c2ccccc12)C(=O)N[C@@H](CCC(N)=O)C(=O)N[C@@H](CCC(=O)O)C(=O)N[C@@H](CCC(=O)O)C(=O)N[C@@H](CC[S+](C)[O-])C(=O)N[C@@H](CCC(=O)O)C(=O)N[C@@H](CC(C)C)C(=O)N[C@@H](Cc1ccc(O)cc1)C(=O)N[C@@H](CCCNC(=N)N)C(=O)N[C@@H](CCC(N)=O)C(=O)N[C@@H](CCCCN)C(=O)N[C@H](C(=O)O)C(C)C)C(C)C (some centres unmarked) [G-KV21] (HELM PEPTIDE1{G.F.L.S.K.S.L.V.F.W.Q.E.E.[CS(=O)CC[C@H](N[*:1])C(=O)[*:2]].E.L.Y.R.Q.K.V}$$$$V2.0) | SR-mediated in a time-dependent manner and is largely driven by SR-A | significantly increases | mediated with scavenger receptors (SR) A (SR-A) and BI (SR-B1) with SR-A being the predominant mediator | enhances in vitro macrophage endocytosis | inhibit tumor growth in three human PC xenograft mouse models | significantly improves survival | sensitizes the tumor to chemotherapy |  | 
CC(C)C[C@H](NC(=O)[C@H](Cc1ccccc1)NC(=O)CN)C(=O)N[C@@H](CO)C(=O)N[C@@H](CCCCN)C(=O)N[C@@H](CO)C(=O)N[C@@H](CC(C)C)C(=O)N[C@H](C(=O)N[C@@H](Cc1ccccc1)C(=O)O)C(C)C [GF9] (H-GFLSKSLVF-OH) |  |  |  |  |  |  |  | Non-Toxic | at least 300 mg/kg
